Data published in publication PMC4619459, “Metabolism of β-valine via a CoA-dependent ammonia lyase pathway” (Applied Microbiology and Biotechnology, 2015).

Tests used:
Assay type in all cases: biochemical
[1] = molecular target: T1, BvaA-His (Pseudomonas sp. SBV1, UniProt A0A0C4UT64); experiment: HPLC of AMP formation; conditions: 2.5 mM β-valine, 2.5 mM CoA, 5 mM MgCl2, 50 mM HEPES, 150 mM NaCl, pH 8, 30 °C
[2] = molecular target: T2, BvaB2-His (Pseudomonas sp. SBV1, UniProt A0A0C4USU5); experiment: UPLC-MS (m/z […]) and HPLC; conditions: substrate made in situ by BvaA-His, not purified; 50 mM HEPES, 150 mM NaCl, 5 mM MgCl2, pH 8
T2 sequence (A0A0C4USU5 1-266): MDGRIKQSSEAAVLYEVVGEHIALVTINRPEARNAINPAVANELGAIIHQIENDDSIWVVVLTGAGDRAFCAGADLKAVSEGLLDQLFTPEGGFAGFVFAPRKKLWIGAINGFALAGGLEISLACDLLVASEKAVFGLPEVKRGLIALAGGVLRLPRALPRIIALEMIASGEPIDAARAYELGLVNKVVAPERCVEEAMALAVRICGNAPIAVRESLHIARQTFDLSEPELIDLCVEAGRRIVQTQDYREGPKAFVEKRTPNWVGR

[3] = molecular target: T3, BvaB1-His (Pseudomonas sp. SBV1, UniProt A0A0C4UTI5); experiment: UPLC-MS (m/z […]) and HPLC; conditions: substrate made in situ by BvaA-His, not purified; 50 mM HEPES, 150 mM NaCl, 5 mM MgCl2, pH 8
T3 sequence (A0A0C4UTI5 1-253): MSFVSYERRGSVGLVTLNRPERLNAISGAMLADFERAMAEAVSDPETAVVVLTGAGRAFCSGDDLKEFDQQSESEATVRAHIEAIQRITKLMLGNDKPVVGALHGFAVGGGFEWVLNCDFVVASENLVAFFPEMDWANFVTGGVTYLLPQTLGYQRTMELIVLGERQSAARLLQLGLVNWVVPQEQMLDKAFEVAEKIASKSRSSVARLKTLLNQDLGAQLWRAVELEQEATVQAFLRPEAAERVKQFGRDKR

[4] = molecular target: T3, BvaB1-His; experiment: HPLC of substrate depletion; UPLC-MS; conditions: substrate made in situ by BvaA-His, not purified; 50 mM HEPES, 150 mM NaCl, 5 mM MgCl2, pH 8
[5] = molecular target: T2, BvaB2-His; experiment: HPLC of substrate depletion; UPLC-MS; conditions: substrate made in situ by BvaA-His, not purified; 50 mM HEPES, 150 mM NaCl, 5 mM MgCl2, pH 8
[6] = molecular target: T1, BvaA-His; experiment: UPLC-MS of CoA adduct; HPLC of AMP formation; conditions: 5 mM ATP, 2.5 mM CoA, 5 mM MgCl2, 50 mM HEPES, 150 mM NaCl, pH 8, 30 °C

T1 sequence (A0A0C4UT64 entry or part of it): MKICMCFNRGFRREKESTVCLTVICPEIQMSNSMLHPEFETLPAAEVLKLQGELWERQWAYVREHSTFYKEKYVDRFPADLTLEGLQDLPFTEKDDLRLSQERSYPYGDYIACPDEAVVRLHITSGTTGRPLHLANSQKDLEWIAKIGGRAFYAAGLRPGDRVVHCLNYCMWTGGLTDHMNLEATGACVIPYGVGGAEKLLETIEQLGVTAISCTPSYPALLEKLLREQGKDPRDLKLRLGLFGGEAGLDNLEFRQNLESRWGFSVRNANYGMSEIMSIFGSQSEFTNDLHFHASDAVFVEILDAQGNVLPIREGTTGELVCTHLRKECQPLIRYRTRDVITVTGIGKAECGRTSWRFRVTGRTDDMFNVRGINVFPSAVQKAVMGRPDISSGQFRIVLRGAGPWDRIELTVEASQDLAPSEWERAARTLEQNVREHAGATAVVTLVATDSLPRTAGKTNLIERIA

Nc1ncnc2c1ncn2[C@@H]1O[C@H](COP(=O)(O)OP(=O)(O)OP(=O)(O)O)[C@@H](O)[C@H]1O [ATP]
HPLC of AMP formation [1]: able to convert β-valine to β-valinyl-CoA in an ATP- and CoA-dependent manner

CC(C)=CC(=O)SCCNC(=O)CCNC(=O)[C@H](O)C(C)(C)COP(=O)(O)OP(=O)(O)OC[C@H]1O[C@@H](n2cnc3c(N)ncnc32)[C@H](O)[C@@H]1OP(=O)(O)O [3-methyl-crotonyl-CoA]
UPLC-MS (m/z 849) and HPLC [2]: This parent ion was observed in a mixture containing either BvaB1-His or BvaB2-His | UPLC-MS (m/z 849) and HPLC [3]: This parent ion was observed in a mixture containing either BvaB1-His or BvaB2-His

CC(C)(N)CC(=O)SCCNC(=O)CCNC(=O)[C@H](O)C(C)(C)COP(=O)(O)OP(=O)(O)OC[C@H]1O[C@@H](n2cnc3c(N)ncnc32)[C@H](O)[C@@H]1OP(=O)(O)O [β-valinyl-CoA]
HPLC of substrate depletion; UPLC-MS [4]: both expected β-valinyl-CoA ammonia lyases are able to convert β-valinyl-CoA to 3-methyl-crotonyl-CoA | HPLC of substrate depletion; UPLC-MS [5]: both expected β-valinyl-CoA ammonia lyases are able to convert β-valinyl-CoA to 3-methyl-crotonyl-CoA

CC(C)(N)CC(=O)O [β-valine]
UPLC-MS of CoA adduct; HPLC of AMP formation [6]: both the β-valinyl-CoA and the AMP levels increased in time
